Measured values: article PMC10874388, “Cyclic peptides discriminate BCL-2 and its clinical mutants from BCL-XL by engaging a single-residue discrepancy” (Nature Communications, 2024)
Where “and” joins values, the source holds several entries; their conditions need not be identical. Equal entries are not always repeated.

Key:
Type in all cases: cell-based
Jurkat cells = assay: Cell viability assay (CellTiter-Glo), Jurkat
Experimental: (§1) The cell lines Jurkat (TIB-152), El4 (TIB-39), Daudi (ccl-213), RS4:11 (crl-1873), A549 (ccl-185), HepG2 (hb-8065) and PANC-1 (crl-1469) were purchased from ATCC (American Type Culture Collection), and MGC-803 (C6582) was purchased from Beyotime (https://www.beyotime.com/product/C6582.htm). […] Daudi and RS4:11 cells were cultured in RPMI-1640 medium (HyClone, SH30809.01) and 10% FBS (Gibco, 10099-141), whereas HepG2, MGC-803 and PANC-1 cells were cultured in MDEM (HyClone, SH30243.01). Cells were maintained at 37 °C under a humidified, 5% (v/v) CO2-containing atmosphere.
(§2) Cell viability was measured using CellTiter-Glo® 2.0 Reagent (Promega, G9242). […] After different inhibitors were added into serum-free medium and cultured for 4 h (RS4:11 for 6 h), FBS were supplemented to 10% and then incubated totally for 24 h or 48 h. Finally, the IC50 values were calculated based on measurements using a microplate reader (Thermo, Varioskan LUX). Statistical analysis was performed using software GraphPad Prism 7.0.

Daudi cells = assay: Cell viability assay (CellTiter-Glo), Daudi; details: for raw viability signal, replicates: Daudi
Summary of the method: (§3)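 Compounds added in serum-free medium for 4 h (RS4:11: 6 h), then FBS brought to 10% and incubation continued to 24 h or 48 h total at 37 °C, 5% CO2. Viability by CellTiter-Glo 2.0 luminescence; IC50 calculated.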

RS4:11 cells = assay: Cell viability assay (CellTiter-Glo), RS4:11; details: for raw luminescence reading / inhibition rate: RS4:11, single wells
Summary of the method: as §3

A549 cells (control) = assay: Cell viability assay (CellTiter-Glo), normal A549 (control); details: for raw luminescence reading / control inhibiton rate: A549 control, single wells
Experimental: as §1, §2

[1] = tested on: A549 cells overexpressing BCL-2 G101V; assay: Cell viability assay, A549 stably overexpressing BCL-2 G101V; details: A549 BCL2/G101V, single wells
Experimental: as §2
Lentivirus packaging vectors pMDLg/pRRE, pRSV-Rev, and pVSV-G were obtained from Prof. Han Jiahuai’s lab (Xiamen University). Lentiviruses were produced using 3rd-generation lentivirus packaging plasmids transiently transfected into HEK293T cells with the constructs of interest using 0.25 M CaCl2. Media was changed after 16 h, and supernatants containing infectious virus particles were harvested 24 h later. A second viral harvest was made following a further 24 h incubation with fresh media. Virus containing supernatant was filtered through a […], and stored at 4 °C or −80 °C until being used. Typically, A549 cells were seeded into 10 cm cell culture dishes at 4 ~ 8 × 10^5 cells/cm^2. An equivalent volume of virus containing culture medium was added along with polybrene (Sigma) to a final concentration of 10 µg/mL. Cells were incubated at 37 °C for 20 h, before they were washed and resuspended in fresh culture media. The expression level of BCL-2 was measured by qPCR and western blot methods.

O=C(c1cc(-c2cc3c(cc2C(=O)N2Cc4ccccc4C[C@H]2CN2CCOCC2)OCO3)n2c1CCCC2)N(c1ccccc1)c1ccc(O)cc1 [S55746]
raw viability signal, replicates (Jurkat cells; 1.5625 uM): 1714000 and 1704000 and 1684000 and 1696000 and 1705000 and 1721000 | raw viability signal, replicates (Jurkat cells; 3.125 uM): 1448000 and 1401000 and 1343000 and 1377000 and 1375000 and 1402000 | raw viability signal, replicates (Jurkat cells; 6.25 uM): 1130000 and 1065000 and 1037000 and 1061000 and 1063000 and 1084000 | raw viability signal, replicates (Jurkat cells; 12.5 uM): 892300 and 842800 and 825800 and 842200 and 844000 and 860800 | raw viability signal, replicates (Jurkat cells; 25 uM): 395000 and 492300 and 419200 and 469600 and 467400 and 468800 | raw viability signal, replicates (Jurkat cells; 50 uM): 146000 and 160200 and 184200 and 190000 and 211800 and 228200 | IC50 (Daudi cells; 48 h treatment, CellTiter-Glo): 10 ± 0.4 µM | raw viability signal, replicates (Daudi cells; 3.125 uM): 1593 and 1426 and 1310 and 1450 and 1626 and 1878 | raw viability signal, replicates (Daudi cells; 6.25 uM): 1078 and 1072 and 931.3 and 1127 and 973.9 and 1033 | raw viability signal, replicates (Daudi cells; 12.5 uM): 455.5 and 506.4 and 780.1 and 751.1 and 919.0 and 638.7 | raw viability signal, replicates (Daudi cells; 25 uM): 431.3 and 645.0 and 475.8 and 693.5 and 515.7 and 555.5 | raw viability signal, replicates (Daudi cells; 50 uM): 362.9 and 364.8 and 354.3 and 237.1 and 424.9 and 407.4 | raw viability signal, replicates (Daudi cells; 100 uM): 330.6 and 360.1 and 410.7 and 529.9 and 565.2 and 706.1 | IC50 (RS4:11 cells; 48 h treatment, CellTiter-Glo, small-molecule inhibitors, cells marked (nM)): 4.5 ± 0.1 nM | raw luminescence reading (RS4:11 cells; 2.44141 nM): 232300 and 260200 and 275600 and 316000 and 308700 and 306800 | raw luminescence reading (RS4:11 cells; 4.88281 nM): 135300 and 123100 and 129200 and 110700 and 132100 and 115900 | inhibition rate (RS4:11 cells; 4.88281 nM, 0.00488281 µM): 53% and 57% and 55% and 61% and 54% and 59% | raw luminescence reading (RS4:11 cells; 9.76562 nM): 75370 and 71000 and 72070 and 63170 and 68200 and 61260 | inhibition rate (RS4:11 cells; 9.76562 nM, 0.00976562 µM): 74% and 75% and 78% and 76% and 79% | raw luminescence reading (RS4:11 cells; 19.5312 nM): 38320 and 36520 and 36660 and 31950 and 34870 and 31060 | inhibition rate (RS4:11 cells; 19.5312 nM, 0.0195312 µM): 87% and 89% and 88% | raw luminescence reading (RS4:11 cells; 39.0625 nM): 14610 and 13790 and 14580 and 12190 and 12650 and 12610 | inhibition rate (RS4:11 cells; 39.0625 nM, 0.0390625 µM): 95% and 96% | raw luminescence reading (RS4:11 cells; 78.125 nM): 4289 and 3678 and 4541 and 3543 and 3931 and 3419 | inhibition rate (RS4:11 cells; 78.125 nM, 0.078125 µM): 98% and 99% | raw luminescence reading (RS4:11 cells; 156.25 nM): 1268 and 1101 and 1335 and 1644 and 1000 and 916.1 | inhibition rate (RS4:11 cells; 156.25 nM, 0.15625 µM): 100% and 99% | inhibition rate (RS4:11 cells; 312.5 nM): 100% | raw luminescence reading (RS4:11 cells; 312.5 nM): 809.8 and 810.5 and 948.9 and 960.0 and 1116 and 1097 | inhibition rate (RS4:11 cells; 625 nM): 99% | raw luminescence reading (RS4:11 cells; 625 nM): 1448 and 1571 and 1720 and 1855 and 1831 and 2149 | inhibition rate (RS4:11 cells; 1250 nM): 100% | raw luminescence reading (RS4:11 cells; 1250 nM): 256.4 and 322.1 and 360.1 and 295.0 and 378.2 and 348.9 | inhibition rate (RS4:11 cells; 2500 nM): 100% | raw luminescence reading (RS4:11 cells; 2500 nM): 334.6 and 379.8 and 329.3 and 445.4 and 358.3 and 346.2 | inhibition rate (RS4:11 cells; 5000 nM): 100% | inhibition rate (RS4:11 cells; 10000 nM): 100% | raw luminescence reading (RS4:11 cells; 10000 nM): 297.6 and 210.5 and 312.1 and 264.1 and 325.8 and 327.8 | IC50 (A549 cells (control); 48 h, CellTiter-Glo, n = 6, read-out: IC50 A549 control (original cells)): 74.1 ± 4.5 µM | raw luminescence reading (A549 cells (control); 3.125 uM): 680400 and 663400 and 563700 and 629300 and 626800 and 613100 | raw luminescence reading (A549 cells (control); 6.25 uM): 624000 and 698000 and 600600 and 640100 and 681300 and 637500 | raw luminescence reading (A549 cells (control); 12.5 uM): 490700 and 564100 and 465600 and 496900 and 544400 and 512100 | control inhibiton rate (A549 cells (control); 25 uM): 29% and 19% and 33% and 30% and 20% and 28% | raw luminescence reading (A549 cells (control); 25 uM): 465600 and 531000 and 436600 and 460300 and 522200 and 471500 | control inhibiton rate (A549 cells (control); 50 uM): 45% and 39% and 47% and 38% and 42% | raw luminescence reading (A549 cells (control); 50 uM): 357700 and 400600 and 345700 and 358400 and 403100 and 379300 | control inhibiton rate (A549 cells (control); 100 uM): 58% and 52% and 57% and 50% and 55% | raw luminescence reading (A549 cells (control); 100 uM): 277600 and 315100 and 274100 and 282200 and 324600 and 296100 | control inhibiton rate (A549 cells (control); 200 uM): 64% and 60% and 63% and 57% and 61% | raw luminescence reading (A549 cells (control); 200 uM): 232800 and 260700 and 234900 and 239800 and 281200 and 257400 | BCL2/G101V inhibiton rate ([1]; 3.125 uM): 8% and 4.44% and 2.43% and 0.638% and 1% and 2% | raw luminescence reading ([1]; 3.125 uM): 671600 and 698900 and 713600 and 726700 and 723800 and 716000 | BCL2/G101V inhibiton rate ([1]; 6.25 uM): 13% and 10% and 7.56% and 8% and 9% | raw luminescence reading ([1]; 6.25 uM): 633100 and 639000 and 656800 and 676100 and 673100 and 668300 | BCL2/G101V inhibiton rate ([1]; 12.5 uM): 26% and 24% and 22% and 23% and 21% | raw luminescence reading ([1]; 12.5 uM): 539700 and 558400 and 568300 and 571800 and 566400 and 579500 | BCL2/G101V inhibiton rate ([1]; 25 uM): 24% and 23% and 22% and 21% | raw luminescence reading ([1]; 25 uM): 553400 and 560600 and 571800 and 579800 and 580700 and 578200 | BCL2/G101V inhibiton rate ([1]; 50 uM): 39% and 38% and 36% and 35% and 34% | raw luminescence reading ([1]; 50 uM): 444500 and 453000 and 466400 and 464700 and 472100 and 479600 | BCL2/G101V inhibiton rate ([1]; 100 uM): 46% and 45% and 42% | raw luminescence reading ([1]; 100 uM): 392800 and 395900 and 399700 and 397700 and 405800 and 422300 | BCL2/G101V inhibiton rate ([1]; 200 uM): 48% and 49% and 45% and 44% | raw luminescence reading ([1]; 200 uM): 382600 and 370800 and 376000 and 400600 and 410900
